{"source": "patent US20040157793A1", "about": "“Modified nucleosides as antiviral agents” (priority 2002, published 2004)", "key": {"[1]": {"tested_on": "HepG2 cells (mitochondrial COXII DNA)", "conditions": "for Average ΔCt ± s.d. MitCoxII / Average ΔCt ± s.d. rDNA / Average ΔΔCt ± s.d. MitCOXII-rDNA / Fold difference in COXII DNA levels normalized for rDNA (range) relative to control: HepG2, 14-day treatment"}, "[2]": {"tested_on": "HBV (wild-type virus: rtM204) in HepAD38 cells", "experiment": "Suppression of HBV production in HepAD38 cells, viral DNA in supernatant by Q-PCR", "format": "cell-based", "conditions": "HepAD38 cells, 5-day incubation", "from_the_text": "The HepAD38 (wild-type virus: rtM204) and HepAD79 (3TC-resistant virus: rtV204) (Stuyver L. J. et al. 2001, Hepatol., 33:751-757) cell lines replicate HBV under conditions that can be regulated with tetracycline (King R. W. et al. 2000, Methods in Molecular Medicine, Vol 24: Antiviral Methods and Protocols, 43-50 (eds: D. Kinchington & R. F. Schinazi), Humana Press Inc, Totowa, N.J.); Ladner, et al. 1997, Antimicrob. Agents Chemother., 41:1715-1720; Ladner S. K., et al. 1998a. Antivir. Chem. Chemother., 9:65-72; Ladner S. K., et al. 1998b. Antimicrob. Agents Chemother., 42:2128-31). In the presence of this drug, the cell supernatant is virtually free of viral DNA, but upon the removal of tetracycline from the culture medium, these cells secrete virus-like particle into the supernatant.\n(§1) HepAD38 and HepAD79 cells were seeded at 5×10^4 cells/well in a 96-well plate in seeding medium (DMEM/F12+10% FBS, 50 μg/ml penicillin, 50 μg/ml streptomycin, 100 μg/ml kanamycin, 400 μg/ml G418, and 0.3 μg/ml tetracycline) and incubated for 2 days at 37° C. in a 5% CO2, humidified atmosphere. The seeding media was removed, and cells were washed 3 times with PBS. Cells were then incubated with 200 μL assay medium (DMEM/F12+10% FBS+P/S/K) containing either (i) no compound, (ii) test compound, or (iii) control drugs at 10 μM. After an additional 5-day (HepAD38) or 13-day incubation (HepAD79, with renewal of the culture media at day 7), the cell supernatant was collected and stored at −70° C. until HBV DNA was quantified.\nHBV DNA was extracted from supernatant using QiaAmp DNA blood Mini kit (Qiagen) and nucleic acids eluted in 200 μl Viral DNA was detected by quantitative PCR (Q-PCR). The TaqMan probe and primers were designed using the Primer Express software (Applied Biosystems) and cover highly conserved sequences complementary to the DNA sequences present in HBsAg. A total of 5 μl DNA was amplified using reagents and conditions as described by the manufacturer (Applied Biosystems). […]"}, "HepG2 cells": {"tested_on": "HepG2 cells", "experiment": "Cell growth of HepG2 cells during 14-day treatment", "format": "cell-based, human", "conditions": "HepG2, up to 100 μM, 14 days", "method": "In addition, these compounds were also tested in the HepG2 cell line (14-day treatment, 100 μM) for their ability to reduce mitochondrial DNA levels (using a newly designed normalized Q-PCR protocol as described in Stuyver, L. J., et al. 2002, Antimicrob. Agents Chemother., 46:3854-3860) or lactic acid production."}, "[3]": {"tested_on": "HBV (3TC-resistant virus: rtV204) in HepAD79 cells", "experiment": "microbe, parasite or virus in culture", "format": "cell-based", "method": "as §1\nHBV DNA was extracted from supernatant using QiaAmp DNA blood Mini kit (Qiagen) and nucleic acids eluted in 200 μl Viral DNA was detected by quantitative PCR (Q-PCR). The TaqMan probe and primers were designed using the Primer Express software (Applied Biosystems) and cover highly conserved sequences complementary to the DNA sequences present in HBsAg. A total of 5 μl DNA was amplified using reagents and conditions as described by the manufacturer (Applied Biosystems).\nSubsequently, the time course of viral induction in HepAD79 cells over a 13-day incubation period was investigated.\nTherefore, the DNA extracted from the cell supernatant was also amplified by Q-PCR for the presence of cellular DNA (the rRNA gene)."}, "M522V virus (rtV204 HBV)": {"tested_on": "M522V virus (rtV204 HBV)", "conditions": "Ono S. K. et al.; cited from earlier work"}}, "note": "Where two headings read alike, the source gives them in different places."}
{"smiles": "Nc1nc(=O)n([C@@H]2C=C[C@H](CO)O2)cc1F", "note": "[L-d4FC]", "values": [{"measurement": "Average ΔCt ± s.d. MitCoxII", "setting": "[1]; 10 μM", "result": "2.72 ± 0.27"}, {"measurement": "Average ΔCt ± s.d. rDNA", "setting": "[1]; 10 μM", "result": "3.89 ± 0.23"}, {"measurement": "Average ΔΔCt ± s.d. MitCOXII-rDNA", "setting": "[1]; 10 μM", "result": "−1.17 ± 0.47"}, {"measurement": "Fold difference in COXII DNA levels normalized for rDNA (range) relative to control", "setting": "[1]; 10 μM", "result": "2.25 (1.62-3.12)"}, {"measurement": "Average ΔCt ± s.d. MitCoxII", "setting": "[1]; 100 μM", "result": "6.52 ± 0.14"}, {"measurement": "Average ΔCt ± s.d. rDNA", "setting": "[1]; 100 μM", "result": "8.76 ± 0.47"}, {"measurement": "Average ΔΔCt ± s.d. MitCOXII-rDNA", "setting": "[1]; 100 μM", "result": "2.24 ± 0.58"}, {"measurement": "Fold difference in COXII DNA levels normalized for rDNA (range) relative to control", "setting": "[1]; 100 μM", "result": "4.72 (3.16-7.04)"}, {"measurement": "effect on mitochondrial DNA levels (in words)", "setting": "[1]; HepG2, up to 100 μM, 14 days", "result": "did not specifically affect the mitochondrial DNA levels"}, {"measurement": "HepAD38 log10 inhibition at 10 μM", "setting": "[2]; 10 μM, HBV DNA in supernatant", "result": "2.56 ± 0.44", "unit": "log10"}, {"measurement": "EC90", "setting": "[2]; concentration reducing viral load by 90%, unit printed in text only, read-out: HepAD38 EC90", "result": "50 ± 20", "unit": "nM"}, {"measurement": "effect on cell growth (in words)", "setting": "HepG2 cells", "result": "reduced the cell growth significantly"}, {"measurement": "HepAD79 log10 inhibition at 10 μM", "setting": "[3]; HepAD79 cells, 10 μM, 13-day incubation, HBV DNA in supernatant", "result": "1.64 ± 0.37", "unit": "log10"}, {"measurement": "EC90", "setting": "[3]; HepAD79 cells, 13-day incubation, read-out: HepAD79 EC90", "result": 880, "unit": "nM"}, {"measurement": "FI EC90 AD79/EC90 AD38", "setting": "[3]; fold increase, EC90 HepAD79 over EC90 HepAD38", "result": 17.6}, {"measurement": "EC50", "setting": "M522V virus (rtV204 HBV)", "result": 1800, "unit": "nM"}]}
